Measurements as given in US12263172B2, “Toll-like receptor agonists for use in the treatment of hepatitis b” (priority 2019, dated 2025).

System: CYP1A2, 2B6, and 3A4
Assay: in vitro CYP induction
Format: in vitro ADME
Settings: up to 10 μM

CCCCOc1nc(N)c2[nH]cc(Cc3ccc(CN4CCCC4)cc3)c2n1 [Compound 4]
in vitro induction of CYP1A2, 2B6, and 3A4: not an in vitro inducer
